From US4968708A, “Imidazo[2,1-B]benzothiazole compounds and antiulcer compositions containing the same” (priority 1988, dated 1990)

How the values were obtained:
[1] = tested on: aspirin-induced ulcer; test: Antiulcer activity against aspirin-induced ulcer model; assay type: in vivo, Wistar strain male rats; conditions: rats, 100 mg/kg p.o. 30 min before aspirin 200 mg/kg p.o.; for inhibition in vivo at 100 mg/kg: Rattus norvegicus, po, 7 h, read-out: Aspirin Induced Ulcer Inhibition Rate; for Aspirin Induced Ulcer Ulcer Index: stomach excised 7 h after aspirin
Method: Thirty minutes after administration, aspirin was further orally administered at a dose of 200 mg/kg. Seven hours after administration of aspirin, the stomach was excised under ethereal anesthesia and spotted and linear erosion and a long diameter of any ulcer were microscopically measured to determine an ulcer index and an inhibition rate.
(§1) In the control group, a 5% gum arabic aqueous solution was orally administered at a dose of 5 ml/kg.

[2] = tested on: water-immersion stress ulcer; test: Antiulcer activity against water-immersion stress ulcer; assay type: in vivo, Wistar strain male rats; conditions: rats; for inhibition in vivo at 100 mg/kg: Rattus norvegicus, po, 6 h, read-out: Water-Immersion Stress Ulcer Inhibition Rate; for Water-Immersion Stress Ulcer Ulcer Index: 100 mg/kg p.o. 30 min before 6 h water immersion at 22°±1° C.
Method: A suspension of each test compound in a 5% gum arabic aqueous solution was orally given to Wistar strain male rats (at the age of 7 to 8 weeks, weighing 180 to 250 g; 7-9 rats in the group administered with the test compound; 10-16 rats in the control group) fasted for 24 hours at a dose of 100 mg of the test compound/5 ml/kg. Thirty minutes after administration, the animal was immersed in a water bath at 22°±1° C. up to the xiphisternum using a stress cage made by Tokyo University, Faculty of Pharmacology, to apply a stress load for 6 hours. After applying the stress load, the rats had the cervical vertebra dislocated to death. Then, the stomach was excised and, spotted and linear erosion and a long diameter of any ulcer were microscopically measured to determine an ulcer index and an inhibition rate.
as §1

[3] = tested on: ethanol-induced ulcer; test: Antiulcer activity against ethanol-induced ulcer model; assay type: in vivo, Wistar strain male rats; conditions: rats, 100 mg/kg p.o. 30 min before absolute ethanol 5 ml/kg p.o.; for Ethanol Induced Ulcer Ulcer Index: stomach excised 1 h later; for Ethanol Induced Ulcer Inhibition Rate: vs control group
Method: A suspension of each test compound in a 5% gum arabic aqueous solution was orally given to Wistar strain male rats (at the age of 7 to 8 weeks, weighing 180 to 250 g; 5 rats in the group administered with the test compound; 9 rats in the control group) fasted for […] at a dose of 100 mg of any the test compound/5 ml/kg. Thirty minutes after administration, absolute ethanol was further orally administered at a dose of 5 ml/kg. One hour after administration of absolute ethanol, the stomach was excised under ethereal anesthesia and spotted and linear erosion and a long diameter of ulcer were microscopically measured to determine an ulcer index and an inhibition rate.
as §1

[4] = tested on: gastric juice secretion; test: Gastric juice secretion inhibition activity (pyloric ligature); assay type: in vivo, Wistar strain male rats; conditions: rats, 100 mg/kg p.o.; for inhibition in vivo at 100 mg/kg: Rattus norvegicus, po, read-out: Volume Inhibition Rate; for Volume (gastric juice): pyloric ligature 30 min later, gastric juice collected after 4 h; for pH (gastric juice): first part of Table 5
Method: A suspension of each test compound in a 5% gum arabic aqueous solution was orally given to Wistar strain male rats (at the age of 7 to 8 weeks, weighing 180 to 250 g; 7-9 rats in the group administered with the test compound; 14-17 rats in the control group) fasted for 24 hours at a dose of 100 mg of the test compound/5 ml/kg. Thirty minutes after administration, pyloric ligature was made under ethereal anesthesia. Four hours thereafter, the stomach was excised under ethereal anesthesia to collect gastric juice. The collected gastric juice was centrifuged (2500 rpm) at 4° C. for 10 minutes. After the supernatant was collected, the amount of the gastric juice and its pH were measured using a pH meter. Furthermore, the amount of free hydrochloric acid and the total acidity were measured with Topfer reagent and phenolphthalein reagent, respectively. Using a part of the gastric juice, pepsin output in the gastric juice was measured using casein as a substrate in a manner similar to the method of Anson et al.
as §1

[5] = Acute toxicity; assay type: in vivo; conditions: mouse, in vivo, po; mice, 7 days observation, Probit method
Method: (§2) A suspension of each test compound in a 5% gum arabic aqueous solution was orally given to ddy strain male mice (at the age of 4 to 5 weeks, weighing 25 to 35 g; 2 to 9 mice in one group). For 7 days after the administration, the mice were observed as to if they were dead or alive. Based on the number of deaths, the LD50 value was determined by the Probit method.

[6] = tested on: ddy strain male mice; test: Acute toxicity; assay type: in vivo; conditions: 7 days observation
Method: as §2

[7] = 100 mg/kg p.o. 30 min before 6 h water immersion, vs control group
[8] = 4 h, pyloric ligature, 4 h, vs control group

| Structure (SMILES) | inhibition in vivo at 100 mg/kg ([1]; vs control group) [%] | Aspirin Induced Ulcer Ulcer Index [1] [mm^2] | inhibition in vivo at 100 mg/kg [2, 7] [%] | Water-Immersion Stress Ulcer Ulcer Index [2] [mm^2] | Ethanol Induced Ulcer Ulcer Index [3] [mm^2] | Ethanol Induced Ulcer Inhibition Rate [3] [%] | inhibition in vivo at 100 mg/kg [4, 8] [%] | Volume (gastric juice) [4] [mL] | Acidity ([4]; pyloric ligature, 4 h) [mEq/l] | Free HCl ([4]; pyloric ligature, 4 h) [mEq/l] | Pepsin Activity ([4]; pyloric ligature, 4 h) [units/ml] | Pepsin Output ([4]; pyloric ligature, 4 h) [units/hr] | pH (gastric juice) ([4]; pyloric ligature, 4 h) | LD50 at 168 h [5] [mg/kg] | Mortality (No. death/No. treated) ([6]; 2000 mg/kg p.o) | Mortality (No. death/No. treated) ([6]; 2828 mg/kg p.o) | also measured |
| --- | --- | --- | --- | --- | --- | --- | --- | --- | --- | --- | --- | --- | --- | --- | --- | --- | --- |
| Cc1nc2sc3ccccc3n2c1CO [Example 1, 2-Methylimidazo[2,1-b]benzothiazole-3-methanol] | 59.4 | 23.3 ± 5.1 | 80 | 4.3 ± 0.9 | 4.9 ± 2.6 | 94.3 | 52.5 | 2.8 ± 0.4 | 49.0 ± 5.9 | 9.4 ± 3.1 | 90.3 ± 5.9 | 59.6 ± 6.8 | 2.94 ± 0.30 | 3590 | 0/4 | 1/5 | Mortality (No. death/No. treated) ([6]; 4000 mg/kg p.o): 3/5; Mortality (No. death/No. treated) ([6]; 4899 mg/kg p.o): 2/2 |
| Cc1nc2sc3ccccc3n2c1CO.Cl [Example 2, 2-Methylimidazo[2,1-b]benzothiazole-3-methanol hydrochloride] | – | 36.0 ± 5.8 | – | 4.6 ± 1.1 | – | – | – | 2.8 ± 0.4 | 77.3 ± 4.5 | 15.8 ± 4.5 | 91.1 ± 8.3 | 58.4 ± 5.2 | 2.43 ± 0.20 | 2130 | – | – | Aspirin Induced Ulcer Inhibition Rate ([1]; vs control group): 46.1%; Water-Immersion Stress Ulcer Inhibition Rate [2, 7]: 80.3%; Volume Inhibition Rate ([4]; pyloric ligature, 4 h, vs control group): 53.3%; Mortality (No. death/No. treated) ([6]; 1732 mg/kg p.o): 0/5; Mortality (No. death/No. treated) ([6]; 2041 mg/kg p.o): 2/4; Mortality (No. death/No. treated) ([6]; 2236 mg/kg p.o): 3/5; Mortality (No. death/No. treated) ([6]; 2449 mg/kg p.o): 4/5 |
| CCc1nc2sc3ccccc3n2c1CO [Example 8, 2-Ethylimidazo[2,1-b]benzothiazole-3-methanol] | – | – | 50.3 | 8.1 ± 2.2 | 4.1 ± 2.2 | 95.2 | – | – | – | – | – | – | – | – | – | – | – |
| COCc1c(C)nc2sc3ccccc3n12 [Example 12, 2-Methylimidazo[2,1-b]benzothiazole-3-methanol methyl ether] | 34.5 | 49.9 ± 5.4 | 83.3 | 2.2 ± 0.4 | – | – | 60.3 | 2.5 ± 0.1 | 66.7 ± 4.7 | 23.2 ± 6.9 | 90.7 ± 4.1 | 55.5 | 2.28 ± 0.26 | 1770 | 6/9 | 6/6 | Mortality (No. death/No. treated) ([6]; 1414 mg/kg p.o): 1/5 |
